Source: patent US20230000842A1, “METHODS OF TREATING CARTILAGE DISORDERS THROUGH INHIBITION OF CLK AND DYRK” (SAMUMED, LLC, priority 2019, published 2023)

What was measured:
[1] = system: Wnt pathway activity (SW480 colon carcinoma cells stably expressing the Sp5-Luc reporter); assay: Wnt pathway activity screening assay (Sp5-Luc reporter gene assay); details: Homo sapiens, SW480, Table 4; SW480 cells stably expressing Sp5-Luc reporter, 10-point dose-response from 10 μM, 36 to 48 hours
[2] = system: primary human mesenchymal stem cells (hMSCs); assay: Chondrogenesis screening using primary human mesenchymal stem cells; type: cell-based; details: Homo sapiens, Mesenchymal stem cells, hMSC chondrogenesis; for EC50: concentration required to induce 50% levels of chondrogenesis with TGF-β3 as positive control, read-out: Conc (nM) of 50% TGF-β3 activity; for Emax: maximum activity relative to TGF-β3 (10 ng/mL) positive control, read-out: Max. Activity as % TGF-β3 activity
Outline: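 Derived values are EC50 for 50% chondrogenesis, maximal activity and the dose giving it. These come from nodule area in passage 3–6 primary hMSCs, expressed as fold change over the mean of 3 same-plate DMSO wells, 2–3 replicates per concentration. TGF-β3 served as positive control.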

CLK2 kinase = CLK2 kinase (Homo sapiens, UniProt P49760); assay: CLK2 kinase activity assay (Z-lyte FRET); type: biochemical; details: Z-lyte Ser/Thr 6 peptide, 60 μM ATP, 1 h at room temperature;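 note: FRET read-out as coumarin to fluorescein emission ratio, unphosphorylated peptide as 0% and phosphorylated peptide as 100% controls, duplicate reactions, non-linear regression fit of dose-response curves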
CLK3 kinase = CLK3 kinase (Homo sapiens, UniProt P49761); assay: CLK3 kinase activity assay (Z-lyte FRET); type: biochemical; details: Z-lyte Ser/Thr 18 peptide, 156 μM ATP, 1 h at room temperature;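 note: kinase activity read as coumarin/fluorescein emission ratio by FRET, unphosphorylated peptide as 0% and phosphorylated peptide as 100% control, values from non-linear regression of dose-response curves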
Sequence of CLK3 kinase (P49761 whole entry): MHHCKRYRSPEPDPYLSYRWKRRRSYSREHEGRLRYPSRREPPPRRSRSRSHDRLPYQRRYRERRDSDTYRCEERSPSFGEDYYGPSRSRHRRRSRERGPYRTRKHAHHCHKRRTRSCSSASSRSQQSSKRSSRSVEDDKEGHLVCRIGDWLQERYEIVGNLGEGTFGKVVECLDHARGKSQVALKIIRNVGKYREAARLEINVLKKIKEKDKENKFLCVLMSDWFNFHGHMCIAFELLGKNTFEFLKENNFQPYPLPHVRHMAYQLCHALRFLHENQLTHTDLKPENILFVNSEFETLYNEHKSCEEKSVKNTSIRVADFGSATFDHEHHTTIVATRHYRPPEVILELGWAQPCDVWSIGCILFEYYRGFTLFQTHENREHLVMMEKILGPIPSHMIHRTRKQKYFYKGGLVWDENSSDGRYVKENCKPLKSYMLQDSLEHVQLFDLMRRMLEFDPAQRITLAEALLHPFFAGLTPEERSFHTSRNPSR

Sequence of CLK2 kinase (P49760 whole entry): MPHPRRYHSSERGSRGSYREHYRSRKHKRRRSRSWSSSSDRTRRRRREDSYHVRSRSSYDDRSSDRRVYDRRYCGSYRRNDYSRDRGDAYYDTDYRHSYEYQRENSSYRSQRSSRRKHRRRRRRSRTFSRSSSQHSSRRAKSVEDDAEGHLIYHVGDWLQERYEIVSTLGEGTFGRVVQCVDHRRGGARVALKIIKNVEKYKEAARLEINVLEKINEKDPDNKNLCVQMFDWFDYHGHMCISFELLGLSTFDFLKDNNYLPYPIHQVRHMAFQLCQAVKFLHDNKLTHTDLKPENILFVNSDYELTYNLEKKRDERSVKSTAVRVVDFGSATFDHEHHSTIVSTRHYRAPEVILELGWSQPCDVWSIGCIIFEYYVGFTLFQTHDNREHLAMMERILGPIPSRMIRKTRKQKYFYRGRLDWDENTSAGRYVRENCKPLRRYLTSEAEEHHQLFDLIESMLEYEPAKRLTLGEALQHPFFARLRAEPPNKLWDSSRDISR

| Compound | EC50 [1] [nM] | EC50 [2] [nM] | Emax [2] [%] | EC50 (CLK2 kinase) [nM] | EC50 (CLK3 kinase) [nM] |
| --- | --- | --- | --- | --- | --- |
| CN(C)Cc1cncc(-c2ccc3[nH]nc(-c4cc5cnccc5[nH]4)c3n2)c1 [compound 442] | 1140 | 30 | 119 | 3 | 101 |
| CN(C)Cc1cncc(-c2ccc3[nH]nc(-c4cc5cccnc5[nH]4)c3n2)c1 [compound 443] | > 10000 |  | 37 | 7 | 566 |
| c1ccc2[nH]c(-c3n[nH]c4ncc(-c5cncc(CN6CCCC6)c5)cc34)cc2c1 [compound 444] | 1410 | 10 | 97.6 | 9 | 362 |
| FC1(F)CCN(Cc2cncc(-c3cc4c(-c5cc6cccnc6[nH]5)n[nH]c4cn3)c2)C1 [compound 445] | 1350 |  | 45.3 | 5 | 203 |
| FC1(F)CCN(Cc2cncc(-c3ccc4[nH]nc(-c5cc6cnccc6[nH]5)c4n3)c2)C1 [compound 446] | 45 | 300 | 134 | 1 | 23 |
| FC1(F)CCN(Cc2cncc(-c3ccc4[nH]nc(-c5cc6cccnc6[nH]5)c4n3)c2)C1 [compound 447] | 104 | 100 | 134 | 2 | 37 |
| c1cc2[nH]c(-c3n[nH]c4ccc(-c5cncc(CN6CCCCC6)c5)cc34)cc2cn1 [compound 448] | 685 |  | 122 | 3 | 28 |
| c1cnc2[nH]c(-c3n[nH]c4ccc(-c5cncc(CN6CCCCC6)c5)cc34)cc2c1 [compound 450] | 1670 |  | 50.8 | 3 | 85 |
| c1cc2[nH]c(-c3n[nH]c4ncc(-c5cncc(CN6CCCCC6)c5)cc34)cc2cn1 [compound 451] | 1540 |  | 39.7 | 5 | 53 |
| c1cc2cc(-c3n[nH]c4ccc(-c5cncc(OCCN6CCCC6)c5)cc34)[nH]c2cn1 [compound 452] | 1850 |  | 44.6 | 2 | 68 |
| c1cnc2[nH]c(-c3n[nH]c4ccc(-c5cncc(OCCN6CCCC6)c5)cc34)cc2c1 [compound 453] | 3300 |  | 42.7 | 2 | 246 |
| Nc1cncc(-c2ccc3[nH]nc(-c4cc5c(N6CCCCC6)ccnc5[nH]4)c3c2)c1 [compound 455] | 604 |  | 130 | 5 | 110 |
| Nc1cncc(-c2cc3c(-c4cc5c(N6CCCCC6)cncc5[nH]4)n[nH]c3cn2)c1 [compound 456] | 2960 | 30 | 93.5 | 2 | 94 |
| CC(=O)Nc1cncc(-c2ccc3[nH]nc(-c4cc5c(N6CCCCC6)nccc5[nH]4)c3c2)c1 [compound 457] | 445 | 10 | 244 | 1 | 52 |
| CCCCC(=O)Nc1cncc(-c2ccc3[nH]nc(-c4cc5c(N6CCCCC6)cccc5[nH]4)c3n2)c1 [compound 458] | 572 | 100 | 68.6 | 20 | 2190 |
| CCCCC(=O)Nc1cncc(-c2ccc3[nH]nc(-c4cc5c(N6CCCCC6)nccc5[nH]4)c3n2)c1 [compound 459] | 4050 | 30 | 54.5 | 13 | 269 |
| O=C(Nc1cncc(-c2cnc3[nH]nc(-c4cc5c(N6CCCCC6)nccc5[nH]4)c3c2)c1)C1CC1 [compound 460] | 3850 |  | 42.5 | 8 | 231 |
| O=C(Nc1cncc(-c2cc3c(-c4cc5c(N6CCCCC6)nccc5[nH]4)n[nH]c3cn2)c1)C1CCC1 [compound 461] | 4070 |  | 42.4 | 19 | 342 |
